Counter-ions that a name gives are not always drawn. Like-named read-outs stand apart in the source and are kept apart here.
Tests used:
[1] = Metabolic stability in human liver microsomes; type: in vitro ADME; details: human liver microsomes 0.5 mg/mL, 1 μM test compound, pH 7.4; for microsomal CLint at 1 μM: read-out: Human LM Clint
Method: (§1) 4) Metabolic Stability in Human/Mouse Liver Microsomes
(§2) The objective of this study is to measure in vitro metabolic stability of test compound(s) in human and mouse liver microsomes and provide quantitative information on the rate of metabolic turnover (i.e. determination of the apparent intrinsic clearance of test).
(§3) Test items were prepared at a stock concentration of 10 mM in DMSO. For determination of metabolic turnover, a final working solution was prepared by adding 2 μL of 10 mM DMSO stock solution for test compound or positive control compounds to 198 μL of acetonitrile (100 μM final concentration).
(§4) Incubations were performed as follows: First, liver microsomes were thawed on ice and a master solution containing liver microsomes in 100 mM PBS (phosphate-buffered saline) at pH 7.4 is prepared. Next, the liver microsomes solution was added to the incubation plates and 10 mM NADPH (Nicotinamide-adenine dinucleotide phosphate) was added (MW: 833.4 g/mol; Roche Diagnostics GmbH, Germany. Dissolved in phosphate buffer (100 mmol/L, pH 7.4)). The mixture was mixed for 10 seconds and pre-warmed in the incubation plate at 37° C. for 10 minutes. The metabolic reaction was initiated with the addition of 5 μL of the 100 μM working solution for test compound or positive control compounds to incubation plate (final test item concentration=1 μM). The reaction final mixture should contain 1 mM NADPH, 0.5 mg/mL microsomes protein and 1 μM test compound or positive control compound in 100 mM PBS at pH 7.4. The percentage of organic solvent in incubation mixture is 1% with DMSO ≤0.02%.
(§5) The reaction was quenched by transferring 50 μL of the incubated mixture at selected time points into the quenching plate containing 200 μL of cold methanol. After sampling of all the timepoints the quenching plate was centrifuged at 4000 rpm for 40 minutes to precipitate protein. A total of 90 μL of the supernatant was transferred to an analysis plate and ultra-pure H2O water is added into each well for LC/MS/MS analysis. All incubations and analysis were performed in duplicate.
(§6) All calculations were carried out using Microsoft Excel. The slope value, k, was determined by linear regression of the natural logarithm of the remaining percentage of the parent drug vs. incubation time curve.
(§7) The in vitro half-life (in vitro tin) was determined from the slope value: in vitro t1/2=−(0.693/k)
(§8) Conversion of the in vitro tin (in min) into the in vitro intrinsic clearance (in vitro CLint, in μL/min/mg proteins) was done using the following equation: […]

[2] = target: menin/MLL (terbium chelate-labeled menin, FITC-MBM1 peptide) (Homo sapiens (Human), UniProt O00255); test: Menin/MLL homogenous time-resolved fluorescence (HTRF) assay; type: binding;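 also: IC50 from percent inhibition of HTRF signal, normalized between wells without competitor and wells with a saturating competitor that displaces FITC-MBM1 from His-tagged menin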
OCI-AML3 cells = test: Proliferation assay (spheroid growth, 8 days), OCI-AML3; type: cell-based, human; details: OCI-AML3, 8 days
Procedure, shortened: (§9)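 200 MOLM14 (MLL-AF9), 200 OCI-AML3 (NPM1c) or 300 KO-52 (MLL wildtype) cells were grown as spheroids in ultra-low attachment wells with compound, 0.3% DMSO, for 8 days at 37 °C. Confluence was imaged on day 8, normalized to DMSO and top-dose reference compound. IC50 came from a variable-slope fit constrained 0–100%.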

KO-52 cells = test: Proliferation assay (spheroid growth, 8 days), KO-52 control cell line; type: cell-based, human; details: read-out: spheroid assay_OneTime KO-52 IC50
Procedure, shortened: as §9

MOLM14 cells = test: Proliferation assay (spheroid growth, 8 days), MOLM14; type: cell-based, human; details: MOLM14, 8 days, read-out: spheroid assay_OneTime MOLM14 IC50;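 also: spheroid size read as confluence by live-cell imaging, compounds added at a range of concentrations with 0.3% DMSO, DMSO-treated wells = 0%, highest reference dose = low control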
hERG potassium channel = hERG potassium channel (Homo sapiens (Human), UniProt Q12809); test: Effect on membrane potassium current IKr in hERG transfected CHO cells, Protocol 1 (QPatch); type: cell-based
Procedure, shortened: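 Whole-cell automated patch clamp on CHO cells stably expressing hERG, held at −80 mV; the value is the tail current at −40 mV after a 2 s step to +60 mV, at pH 7.4 bath and pH 7.2 pipette. After 0.3% DMSO control, compound was applied at 3×10^−7 M, 3×10^−6 M, 10^−5 M and 3×10^−5 M, 5 min each. IC50 comes from a non-linear least-squares fit of block versus vehicle.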

MEIS1 mRNA = MEIS1 mRNA expression assay (Quantigene Singleplex) in MOLM14 cells; type: cell-based, human; details: 48 hours incubation;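 also: MEIS1 transcript levels read by probe hybridization and normalized to RPL28 mRNA, with IC50 fitted to fold changes across a rising compound concentration series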
[3] = Metabolic stability in mouse liver microsomes; type: in vitro ADME; details: mouse liver microsomes 0.5 mg/mL, 1 μM test compound, pH 7.4; for microsomal CLint at 1 μM: read-out: Mouse LM Clint
Method: as §1, §2, §3, §4, §5, §6, §7, §8

hERG = hERG (Homo sapiens (Human), UniProt Q12809); test: Effect on membrane potassium current IKr in hERG-transfected HEK293 cells, Protocol 2 (SyncroPatch 384PE); type: cell-based; details: Protocol 2, hERG-transfected HEK293 cells
Method: 8) Effect on the Membrane Potassium Current IKr in hERG Transfected Cell Lines
The compound, vehicle control and positive control were tested on hERG-transfected HEK293 cells. A human embryonic kidney cell line (HEK293) with a stable transfection of hERG (Zhou Z et al. Biophysical Journal 1998. 74, 230-241; McDonald T. V. et al, Nature 1997. 388, 289-292) was used (University of Wisconsin, Madison, USA). The cells were kept in culture in MEM (Minimum Essential Medium, Gibco) which was supplemented with (amounts indicated added to 500 ml MEM): 5 ml L-Glutamine-Penicillin-Streptomycin (Sigma), 50 ml Fetal Bovine serum (Bio-Whittaker), 5 ml Non-essential Amino Acids 100× (Gibco), 5 ml sodium pyruvate 100 mM (Gibco) and 4 ml geneticin 50 mg/ml (Gibco) using T175 flasks. The cells were incubated at 37° C. in 5% CO2 atmosphere (in air).
Cell Harvesting for Assay
Cells were harvested as described below using Accumax™ (Sigma) as the dissociating reagent. Cells were then resuspended in a mixture of 33% DMEM/F12 (Dulbecco's Modified Eagle Medium/Nutrient Mixture F-12—Sigma) media/67% extracellular physiological solution.
The flasks were washed twice carefully with ˜5-10 ml phosphate buffered saline (PBS) (Gibco™) containing 2 mM EDTA (Ethylenediaminetetraacetic acid) (Sigma). The cells were dissociated using ˜3 ml of Accumax™ (cell detachment solution) and incubated for ˜5 to 10 min. at 37° C. Cold external physiological solution (2-5 ml) was added and the flasks are incubated at ˜4° C. for 5-10 min. Then, the cell suspension in each flask was gently dissociated with a 5 ml pipette. The cell suspension was transferred to a low binding petri-dish (˜[…]). Each flask was washed with ˜additional 5 ml cold external physiological solution and this solution was also added to the petri-dish. The petri-dish was then incubated for another 5 to 10 minutes at ˜4° C. After another gentle dissociation of the cell suspension in the petri dish, the cells were transferred to a reservoir kept on an orbital shaker at 200 rpm at 16° C. Before experiments were performed, the cells recovered for ˜20 min.
A 10 mM solution of the compound was used and plated in a 384 well plate. Aliquots of the stock solutions are diluted with the recording solution (see section 3) using automated liquid handling (Biomek FXP; final DMSO concentration: 0.03 to 0.3%). A standard range of screening concentrations was used ranging from 1 μM to 30 μM.
A positive control (E-4031) was included within each run to evaluate the sensitivity of the assay.
External and Intracellular Solutions Used in the Experiments
In the table below the composition of the intracellular and external buffer solutions is shown in [mM] (“NMDG” means N-methyl-D-glucamine)
The whole cell patch clamp technique on transfected cells allows the study of ion-channels with no—or limited interference from other ion-channels. The effects of the compounds on the hERG current were studied with an automated planar patch clamp system, SyncroPatch 384PE (Obergrussberger et al, Journal of Laboratory Automation 2016. 21 (6). 779-793). All cells were recorded in the whole cell mode of the patch clamp technique. The module is incorporated in a liquid handling pipetting robot system, Biomek FXP, for application of cells and compounds, vehicle control and positive control.
The different concentrations of the compounds were applied in two cumulatively increasing concentrations for the compounds (1 μM and 10 μM, and 3 μM and 30 μM, respectively). The hERG current was determined as the maximal tail current at −30 mV and percent inhibition upon compound or vehicle and positive control addition was reported.
After cells are caught onto the individual holes of the recording chips using the chip fill solution, the seal is increased with the seal enhancer solution (increased [Ca^2+]; then the cells were washed twice with recording solution before using a pressure protocol to go into the whole cell mode. […]

[4] = Mouse PK (in vivo T1/2 and oral bioavailability); details: fasted male CD-1 mice, formulating agent HP-β-CD
Method: 3) Mouse PK (In Vivo T1/2 and Oral Bioavailability)
In vivo pharmacokinetics (PK) were assessed in fasted male CD-1 mice (age 6-8 weeks) following a single intravenous (IV, 0.5 or 1.0 mg/kg administered at 2.5 ml/kg) or oral (PO, 5 mg/kg administered at 10 ml solution/kg) dose of test article formulated in a 20% (w:vol) HP-β-CD solution or in Pyrogen free water.
Plasma and/or whole blood samples were collected from the dorsal metatarsal vein at desired timepoints via serial capillary microsampling (approx. 0.03 mL) using EDTA as an anticoagulant. Concentrations of compound in the plasma and blood samples were analyzed using a qualified LC-MS/MS method. In silico analysis of main pharmacokinetic parameters was performed using WinNonlin (Phoenix™, version 6.1) or similar software. (Results see Table 4)

[5] = HTRF-30 min incubation IC50, 30 min incubation

hERG potassium channel, sequence (Q12809 whole entry): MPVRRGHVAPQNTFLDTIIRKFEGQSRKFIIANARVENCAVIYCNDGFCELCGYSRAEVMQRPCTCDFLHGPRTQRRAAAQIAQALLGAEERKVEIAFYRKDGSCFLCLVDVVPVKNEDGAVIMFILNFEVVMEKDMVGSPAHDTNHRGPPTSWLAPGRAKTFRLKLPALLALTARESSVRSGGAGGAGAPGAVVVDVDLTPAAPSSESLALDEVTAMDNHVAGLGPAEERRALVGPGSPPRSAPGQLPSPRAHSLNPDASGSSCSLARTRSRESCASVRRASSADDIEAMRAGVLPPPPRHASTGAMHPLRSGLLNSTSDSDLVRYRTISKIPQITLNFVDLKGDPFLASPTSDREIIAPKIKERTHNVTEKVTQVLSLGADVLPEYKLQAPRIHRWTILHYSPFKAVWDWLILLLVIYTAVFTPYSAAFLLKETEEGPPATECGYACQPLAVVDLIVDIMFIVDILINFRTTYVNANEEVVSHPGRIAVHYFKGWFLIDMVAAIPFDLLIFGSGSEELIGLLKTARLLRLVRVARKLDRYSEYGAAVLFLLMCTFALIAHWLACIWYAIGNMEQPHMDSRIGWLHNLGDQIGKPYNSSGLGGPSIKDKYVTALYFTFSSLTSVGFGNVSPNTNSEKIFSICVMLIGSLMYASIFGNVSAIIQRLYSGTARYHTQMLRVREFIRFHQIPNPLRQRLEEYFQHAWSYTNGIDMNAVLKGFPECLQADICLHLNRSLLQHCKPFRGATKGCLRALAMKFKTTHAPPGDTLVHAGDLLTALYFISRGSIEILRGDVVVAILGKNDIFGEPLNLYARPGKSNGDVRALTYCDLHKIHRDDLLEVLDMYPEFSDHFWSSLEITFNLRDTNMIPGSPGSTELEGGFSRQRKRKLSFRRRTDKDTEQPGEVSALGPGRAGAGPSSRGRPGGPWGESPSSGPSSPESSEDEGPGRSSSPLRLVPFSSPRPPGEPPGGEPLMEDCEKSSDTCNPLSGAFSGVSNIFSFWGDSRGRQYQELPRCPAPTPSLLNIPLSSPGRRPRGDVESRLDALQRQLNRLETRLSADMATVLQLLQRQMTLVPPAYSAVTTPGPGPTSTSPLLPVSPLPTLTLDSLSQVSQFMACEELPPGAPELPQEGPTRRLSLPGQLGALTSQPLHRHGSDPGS
menin/MLL (terbium chelate-labeled menin, FITC-MBM1 peptide), sequence (O00255 other isoform, or with tags, fused parts or gaps): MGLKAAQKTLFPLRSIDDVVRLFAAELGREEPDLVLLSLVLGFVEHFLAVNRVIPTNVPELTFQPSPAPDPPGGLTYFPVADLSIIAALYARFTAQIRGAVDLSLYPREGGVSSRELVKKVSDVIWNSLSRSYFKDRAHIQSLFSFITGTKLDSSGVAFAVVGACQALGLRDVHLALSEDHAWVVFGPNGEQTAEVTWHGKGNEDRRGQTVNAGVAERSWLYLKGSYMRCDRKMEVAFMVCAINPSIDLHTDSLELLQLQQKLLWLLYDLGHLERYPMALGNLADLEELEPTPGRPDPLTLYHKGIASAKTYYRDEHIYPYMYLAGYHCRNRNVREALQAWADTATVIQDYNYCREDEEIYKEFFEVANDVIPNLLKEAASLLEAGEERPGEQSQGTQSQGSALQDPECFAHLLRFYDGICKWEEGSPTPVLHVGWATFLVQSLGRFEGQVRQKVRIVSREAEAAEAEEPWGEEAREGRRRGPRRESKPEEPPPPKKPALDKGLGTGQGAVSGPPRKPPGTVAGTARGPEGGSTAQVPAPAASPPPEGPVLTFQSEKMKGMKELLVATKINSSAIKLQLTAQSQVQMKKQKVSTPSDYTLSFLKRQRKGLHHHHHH
hERG, sequence (Q12809 whole entry): as the sequence (Q12809 whole entry) above

SMILES	Human LM Clint [1] [µL/min/mg]	IC50 ([2]; read-out: HTRF-30 min incubation IC50, 30 min incubation) [nM]	IC50 (OCI-AML3 cells) [nM]	IC50 (MOLM14 cells) [nM]	IC50 (MEIS1 mRNA) [nM]	Mouse LM Clint [3] [µL/min/mg]	IC50 [2, 5] [nM]	IC50 (OCI-AML3 cells; Homo sapiens, OCI-AML-3, […]) [nM]	IC50 (MOLM14 cells; Homo sapiens, MOLM-14, […]) [nM]	IC50 (MEIS1 mRNA; Homo sapiens, MOLM-14, 48 h) [nM]	microsomal CLint at 1 μM [1] [µL/min/mg]	half-life ([4]; single IV 0.5 or 1.0 mg/kg) [h]	bioavailability ([4]; single PO 5 mg/kg) [%]	microsomal CLint at 1 μM [3] [µL/min/mg]	IC50 (KO-52 cells) [nM]	IC50 (hERG potassium channel) [nM]	IC50 (hERG) [nM]	IC50 (KO-52 cells; Homo sapiens, […]) [nM]
CCN(C(=O)c1cc(F)ccc1Oc1nncnc1N1CCC2(C1)CN([C@H](CCCO)C(C)C)C2)C(C)C (single isomer, unassigned) [Compound 47, (*R)—N-ethyl-5-fluoro-2-((5-(2-(6-hydroxy-2-methylhexan-3-yl)-2,6-diazaspiro[3.4]octan-6-yl)-1,2,4-triazin-6-yl)oxy)-N-isopropylbenzamide]	38	0.31	600	220	140	47									10800	> 30200		
CCN(C)CCC[C@H](C(C)C)N1CC2(CCN(c3ncnnc3Oc3ccc(F)cc3C(=O)N(CC)C(C)C)C2)C1 (single isomer, unassigned) [Compound 132, (*R)—N-ethyl-2-((5-(2-(6-(ethyl(methyl)amino)-2-methylhexan-3-yl)-2,6-diazaspiro[3.4]octan-6-yl)-1,2,4-triazin-6-yl)oxy)-5-fluoro-N-isopropylbenzamide fumarate]							0.11	190	33	15							> 30200	10400
CCN(C(=O)c1cc(F)ccc1Oc1nncnc1N1CCC2(C1)CN([C@H](CCCN(C)CCC#N)C(C)C)C2)C(C)C [Compound 13]							0.4	210	61	77	75			44		25700		> 15000
O=C(O)/C=C/C(=O)O.[2H]C([2H])(COC)N(C)CCC[C@H](C(C)C)N1CC2(CCN(c3ncnnc3Oc3ccc(F)cc3C(=O)N(CC)C(C)C)C2)C1 [Compound 233, (R)-N-ethyl-5-fluoro-N-isopropyl-2-((5-(2-(6-((2-methoxyethyl-1,1-d2)(methyl)amino)-2-methylhexan-3-yl)-2,6-diazaspiro[3.4]octan-6-yl)-1,2,4-triazin-6-yl)oxy)benzamide fumarate]								150	26								> 30200	5030

More lines, main results first:

Human LM Clint [1] [µL/min/mg]	IC50 ([2]; read-out: HTRF-30 min incubation IC50, 30 min incubation) [nM]	IC50 (OCI-AML3 cells) [nM]	IC50 (MOLM14 cells) [nM]	IC50 (MEIS1 mRNA) [nM]	Mouse LM Clint [3] [µL/min/mg]	IC50 [2, 5] [nM]	IC50 (OCI-AML3 cells; Homo sapiens, OCI-AML-3, […]) [nM]	IC50 (MOLM14 cells; Homo sapiens, MOLM-14, […]) [nM]	IC50 (MEIS1 mRNA; Homo sapiens, MOLM-14, 48 h) [nM]	microsomal CLint at 1 μM [1] [µL/min/mg]	half-life ([4]; single IV 0.5 or 1.0 mg/kg) [h]	bioavailability ([4]; single PO 5 mg/kg) [%]	microsomal CLint at 1 μM [3] [µL/min/mg]	SMILES	IC50 (KO-52 cells) [nM]	IC50 (hERG potassium channel) [nM]	IC50 (hERG) [nM]	IC50 (KO-52 cells; Homo sapiens, […]) [nM]
						0.058	130	36	33	11	5.2	5.1	< 7.5	CCN(C)C[C@H](O)C[C@H](C(C)C)N1CC2(CCN(c3ncnnc3Oc3ccc(F)cc3C(=O)N(CC)C(C)C)C2)C1.O=C(O)/C=C/C(=O)O (single isomer, unassigned) [Compound 346, N-ethyl-2-((5-(2-((3*R,5R)-6-(ethyl(methyl)amino)-5-hydroxy-2-methylhexan-3-yl)-2,6-diazaspiro[3.4]octan-6-yl)-1,2,4-triazin-6-yl)oxy)-5-fluoro-N-isopropylbenzamide fumarate]				> 15000
						0.08	140	23	17	22			< 7.5	CC(C)[C@@H](CCCN(C)C)N1CC2(CCN(c3ncnnc3Oc3ccc(F)cc3C(=O)N(C(C)C)C(C)C)C2)C1 (single isomer, unassigned) [Compound 396, (*R)-2-((5-(2-(6-(dimethylamino)-2-methylhexan-3-yl)-2,6-diazaspiro[3.4]octan-6-yl)-1,2,4-triazin-6-yl)oxy)-5-fluoro-N,N-diisopropylbenzamide oxalate]		> 30200		8510

Reference: patent US12473295B2, “Substituted straight chain spiro derivatives” (Janssen Pharmaceutica NV, priority 2019, dated 2025)
